Assay results: US9908893B2 (Latvian Institute of Organic Synthesis, priority 2013, dated 2018)

Legend:
[1] = test system: A7R5 (rat aorta smooth muscle) cells; assay: Intracellular Ca2+ measurements, Fluo-4 NW Calcium Assay Kit, KCl-induced [Ca2+]i increase; assay type: cell-based; settings: for IC50: Rattus norvegicus, A7R5, read-out: Ca^2+ A7R5, IC50; for Ca^2+ antagonist effect compared with Verapamil: relative to Verapamil, A7R5 cells
Method: Changes in intracellular [Ca^2+] concentration were studied using A7R5 (rat aorta smooth muscle) cells and Fluo-4 NW Calcium Assay Kit (“Invitrogen”, Sweden) according to manufacturer's instructions.
Changes in intracellular [Ca^2+]i concentration were studied using Fluo-4 NW Calcium Assay Kit (“Invitrogen”, Sweden) accordingly to manufacturer's instructions. The A7R5 (rat aorta smooth muscle) cells were grown at 37° C. in a humidified atmosphere with 5% CO2/95% air in DMEM medium containing 2 mM glutamine and supplemented with 10% FBS. The cells were seeded into 96 well plate at 10,000 cells/well and incubated for 72 h. The cells were loaded with […] for 45 min. The Fura-4NW loaded cells were pre-incubated in the dark for 15 minutes with tested compounds at concentrations from 0.8 to 100 μM. Then A7R5 cells were pre-treated with 1.5 mM CaCl2 for 5 minutes and KCl (50 mM) was added to A7R5 cells to induce [Ca^2+]i increase. Amlodipine, the well-known calcium channel inhibitor was used as the positive control.

[2] = test system: NIH 3T3 (normal mouse fibroblasts); assay: Basal toxicity test, neutral red, alternative LD50 calculated from IC50; settings: alternative LD50 calculated by formula from IC50 in NIH 3T3 cells, 24 h
Method: (§1) A low therapeutic index of chemotherapy agents is due to affecting not only cancer formation but also normal cells.
(§2) 9,000 NIH 3T3 cells/well were placed into 96-well plates for 24 h and then exposed to the test compound over a range of eight concentration (1-1000 μg/ml) for 24 h. Upon that, the cells were incubated with the neutral red dye for 4 h and then OD was determined at 540 nm. […] The IC50 values were calculated using the program Graph Pad Prism® 4.0

[3] = as above; settings: mouse, LD50, alternative LD50 calculated by formula from IC50 in NIH 3T3 cells
Method: as §1, §2

| Structure (SMILES) | IC50 [1] [µM] | Ca^2+ antagonist effect compared with Verapamil [1] | LD50 [2] [mg/kg] | LD50 at 24 h [3] [mg/kg] |
| --- | --- | --- | --- | --- |
| COC(=O)c1c(C)nc2sc(C(=O)c3ccc(OC)cc3)c(N)c2c1-c1ccc(OC)c(OC)c1 [Compound 6, 3-Amino-4-(3,4-dimethoxyphenyl)-2-(4-methoxybenzoyl)-6-methyl-thieno[2,3-b]-pyridine-5-carboxylic acid methyl ester] | 6 ± 0.8 | more than ten times lower | 2808 | > 2000 |
| CCOC(=O)c1c(C)nc2sc(C(=O)c3ccc(OC)cc3)c(N)c2c1-c1cc(OC)c(OC)c(OC)c1 [Compound 24, 3-Amino-2-(4-methoxybenzoyl)-6-methyl-4-(3,4,5-trimethoxyphenyl)thieno[2,3-b]-pyridine-5-carboxylic acid ethyl ester] | 19 ± 3 | more than ten times lower | >2000 | > 2000 |
| CCOC(=O)c1c(C)nc2sc(C(=O)c3ccc(OC)cc3OC)c(N)c2c1-c1cc(OC)c(OC)c(OC)c1 [Compound 25, 3-Amino-2-(2,4-dimethoxybenzoyl)-6-methyl-4-(3,4,5-trimethoxyphenyl)-thieno[2,3-b]pyridine-5-carboxylic acid ethyl ester] | 46 ± 1.4 | more than ten times lower | >2000 | > 2000 |
